# According to patent publication US20070134660A1, “Methods for identifying modulators of kinesin activity” (ROSETTA INPHARMATICS LLC, priority 2003, published 2007):
# Assays:
# Type in all cases: biochemical
# KSP (SEQ ID NO:15) = molecular target: T1, KSP (SEQ ID NO:15) (Homo sapiens, UniProt P52732); test: KSP motor domain ATPase assay; settings: n = 2
# T1 construct: His6 (printed only as 'H')
# T1 sequence (P52732 with tags, fused parts or gaps): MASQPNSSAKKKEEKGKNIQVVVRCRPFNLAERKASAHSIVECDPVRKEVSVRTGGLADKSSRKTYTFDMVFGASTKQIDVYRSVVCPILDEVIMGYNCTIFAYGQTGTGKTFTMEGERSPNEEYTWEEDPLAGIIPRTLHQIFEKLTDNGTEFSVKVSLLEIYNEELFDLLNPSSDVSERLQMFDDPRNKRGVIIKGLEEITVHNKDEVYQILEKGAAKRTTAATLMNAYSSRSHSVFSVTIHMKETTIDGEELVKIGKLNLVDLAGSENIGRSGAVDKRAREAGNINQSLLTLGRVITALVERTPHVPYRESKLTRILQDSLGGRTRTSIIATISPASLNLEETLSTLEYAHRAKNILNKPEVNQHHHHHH
# uKHC (SEQ ID NO:17) = molecular target: T2, uKHC (SEQ ID NO:17) (Homo sapiens, UniProt P33176); test: uKHC motor domain ATPase assay; settings: read-out: uKHC, nKHC, CENP-E, MKLP-1, KIF1B, MCAK ATPase IC50
# T2 construct: His6 (printed only as 'H')
# T2 sequence (P33176 with tags, fused parts or gaps): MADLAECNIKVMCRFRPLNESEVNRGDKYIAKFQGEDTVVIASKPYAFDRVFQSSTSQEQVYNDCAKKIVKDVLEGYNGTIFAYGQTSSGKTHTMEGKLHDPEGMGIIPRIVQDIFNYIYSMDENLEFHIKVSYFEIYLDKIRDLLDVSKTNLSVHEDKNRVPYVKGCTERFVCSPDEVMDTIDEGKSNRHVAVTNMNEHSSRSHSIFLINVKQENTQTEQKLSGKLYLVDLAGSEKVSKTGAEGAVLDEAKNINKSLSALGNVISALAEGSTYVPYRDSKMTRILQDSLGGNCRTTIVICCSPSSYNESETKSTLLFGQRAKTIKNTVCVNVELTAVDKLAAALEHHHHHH
# nKHC (SEQ ID NO:18) = molecular target: T3, nKHC (SEQ ID NO:18) (Homo sapiens, UniProt Q12840); test: nKHC motor domain ATPase assay; settings: read-out: uKHC, nKHC, CENP-E, MKLP-1, KIF1B, MCAK ATPase IC50
# T3 construct: His6 (printed only as 'H')
# T3 sequence (Q12840 with tags, fused parts or gaps): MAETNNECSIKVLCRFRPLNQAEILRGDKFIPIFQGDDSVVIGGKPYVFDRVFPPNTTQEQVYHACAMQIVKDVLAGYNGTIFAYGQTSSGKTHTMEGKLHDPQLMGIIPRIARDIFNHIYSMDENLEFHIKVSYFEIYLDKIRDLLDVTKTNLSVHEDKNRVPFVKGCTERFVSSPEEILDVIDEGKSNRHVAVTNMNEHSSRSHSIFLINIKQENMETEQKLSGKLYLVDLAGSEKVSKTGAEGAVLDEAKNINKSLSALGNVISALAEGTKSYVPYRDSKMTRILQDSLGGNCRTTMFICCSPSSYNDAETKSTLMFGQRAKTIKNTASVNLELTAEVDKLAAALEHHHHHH
# MKLP-1 (SEQ ID NO:20) = molecular target: T4, MKLP-1 (SEQ ID NO:20) (Homo sapiens, UniProt Q02241); test: MKLP-1 motor domain ATPase assay; settings: read-out: uKHC, nKHC, CENP-E, MKLP-1, KIF1B, MCAK ATPase IC50
# T4 construct: His6 (printed only as 'H')
# T4 sequence (Q02241 with tags, fused parts or gaps): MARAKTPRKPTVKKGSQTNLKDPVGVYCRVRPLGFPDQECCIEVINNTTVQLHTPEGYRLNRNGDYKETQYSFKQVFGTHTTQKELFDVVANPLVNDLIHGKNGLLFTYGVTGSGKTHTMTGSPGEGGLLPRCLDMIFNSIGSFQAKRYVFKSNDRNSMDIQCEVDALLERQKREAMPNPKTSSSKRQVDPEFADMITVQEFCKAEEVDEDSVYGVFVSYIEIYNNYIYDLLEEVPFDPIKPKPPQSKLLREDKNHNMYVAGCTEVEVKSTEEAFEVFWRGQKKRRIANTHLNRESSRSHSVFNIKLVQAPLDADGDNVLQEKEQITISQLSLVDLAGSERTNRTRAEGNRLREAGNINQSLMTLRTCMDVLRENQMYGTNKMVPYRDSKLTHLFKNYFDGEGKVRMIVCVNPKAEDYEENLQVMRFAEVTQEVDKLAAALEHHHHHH
# KIF1B (SEQ ID NO:21) = molecular target: T5, KIF1B (SEQ ID NO:21) (Homo sapiens, UniProt O60333); test: KIF1B motor domain ATPase assay; settings: read-out: uKHC, nKHC, CENP-E, MKLP-1, KIF1B, MCAK ATPase IC50
# T5 construct: His6 (printed only as 'H')
# T5 sequence (O60333 with tags, fused parts or gaps): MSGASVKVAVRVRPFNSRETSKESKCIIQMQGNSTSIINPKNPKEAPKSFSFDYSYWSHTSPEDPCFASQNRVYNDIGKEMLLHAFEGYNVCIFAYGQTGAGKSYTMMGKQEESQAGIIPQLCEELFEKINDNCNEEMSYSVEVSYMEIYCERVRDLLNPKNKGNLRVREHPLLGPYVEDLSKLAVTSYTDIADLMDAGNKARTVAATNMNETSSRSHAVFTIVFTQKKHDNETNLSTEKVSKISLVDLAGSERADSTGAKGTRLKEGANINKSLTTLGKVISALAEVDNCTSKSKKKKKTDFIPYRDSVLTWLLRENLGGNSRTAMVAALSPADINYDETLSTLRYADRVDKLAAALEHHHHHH
IC50 (KSP (SEQ ID NO:15)),IC50 (uKHC (SEQ ID NO:17)),IC50 (nKHC (SEQ ID NO:18)),IC50 (MKLP-1 (SEQ ID NO:20)),IC50 (KIF1B (SEQ ID NO:21)),Structure (SMILES)
25.1 µM,> 40 µM,> 40 µM,> 40 µM,> 40 µM,"CC(C)c1ccc(/C=N/NC(N)=S)cc1 [compound 2, 4-isopropylbenzaldehyde thiosemicarbazone]"
1.53 µM,> 40 µM,> 40 µM,> 40 µM,> 40 µM,"NC(=S)N/N=C/c1ccc(C2CCCCC2)cc1 [compound 3, 4-cyclohexylbenzaldehyde thiosemicarbazone]"
1.1 µM,> 40 µM,> 40 µM,> 40 µM,> 40 µM,"CC(C)c1ccc(/C=N/NC(N)=S)cc1[N+](=O)[O-] [compound 4, 4-isopropyl-3-nitrobenzaldehyde thiosemicarbazone]"

Structure (SMILES),IC50 (KSP (SEQ ID NO:15)),IC50 (uKHC (SEQ ID NO:17)),IC50 (nKHC (SEQ ID NO:18)),IC50 (MKLP-1 (SEQ ID NO:20)),IC50 (KIF1B (SEQ ID NO:21))
"NC(=S)N/N=C\c1ccc(-c2ccccc2)cc1 [compound 1, 1,1′-biphenyl-4-carbaldehyde thiosemicarbazone]",> 40 µM,> 40 µM,> 40 µM,> 40 µM,> 40 µM
